Drawing on the OligoGym collection, this text covers target mRNA inhibition for 40 sequences.

One data set concerns the target IRF4. The following applies: ASO.
A further data set has as its target HSD17B13. The following applies: ASO, HepaRG.

“And” between values parts separate entries of the source, which are not always exact repeats. Equal values may be shown once. After the bases stand the sugars from the 5' end (letter, count) and the backbone: PS all phosphorothioate, else s phosphorothioate and o phosphodiester by linkage. Methylation of C is not given here. e = 2'-O-(2-methoxyethyl) (MOE); k = constrained ethyl (cEt); d = 2'-deoxy (DNA)

Regarding “ATGTGATAGCTGAGCT (sugars kdddddddddkekeke, PS)”, the target mRNA inhibition with IRF4 (MM.1R, 1 µM) was 15%. For GTTAATAATGCTTGCA (sugars k3 d10 k3, PS), the target mRNA inhibition with IRF4 (SK-MEL-28, 4 µM) came to 2%. For the sequence AGGCTCGGGCAGAGCC (sugars k3 d10 k3, PS), the target mRNA inhibition in the data set with IRF4 (SK-MEL-28, 4 µM) is 1%. On the same count and under the same terms, the figure for GGCCAATGATTTTGTT (sugars k3 d10 k3, PS) is 6%. The same measure, in the same setting: for ACACACATTTGAGAGC (sugars k3 d10 k3, PS) the value was 66%.

For GGTACATGGCAGTGGA (sugars k3 d10 k3, PS), in the data set with IRF4 (SK-MEL-28, 4 µM), the target mRNA inhibition amounted to 87%. The same measure, in the same setting: for CATACAGTGTGATTAA (sugars k3 d10 k3, PS) the value was 53%. CTGGCCTGAAGCTTAG (sugars k3 d10 k3, PS): the target mRNA inhibition with IRF4 (MM.1R, 1 µM) turned out to be 25%. On to CATGGAGGATCATAAA (sugars k3 d10 k3, PS), for which the target mRNA inhibition in the data set with IRF4 (SK-MEL-28, 4 µM) came to 22%.

Take CCGGAGCAGGCCCGGG (sugars k3 d10 k3, PS): the target mRNA inhibition with IRF4 (SK-MEL-28, 4 µM) is -13%.

For ACTACTATTGTGGAAA (sugars k3 d10 k3, PS), the target mRNA inhibition with IRF4 (SK-MEL-28, 4 µM) is 18%. For GTCAATACTGAAAGGC (sugars k3 d10 k3, PS), in the data set with IRF4 (SK-MEL-28, 4 µM), the target mRNA inhibition amounted to 66%. As for CTCCTATAACTTCTCC (sugars k3 d10 k3, PS), the target mRNA inhibition in the data set with IRF4 (SK-MEL-28, 4 µM) amounted to 33%. TCCTCCACTACCATAT (sugars k3 d10 k3, PS): the target mRNA inhibition with IRF4 (MM.1R, 1 µM) is -13%.

Consider ATAGCTGTTTATTTCC (sugars k3 d10 k3, PS), for which the target mRNA inhibition stood at 7% with IRF4 (MM.1R, 0.074 µM); 12% in the data set with IRF4 (MM.1R, 0.222 µM); 24% with IRF4 (MM.1R, 0.666 µM); 50% in the data set with IRF4 (MM.1R, 2 µM); 13% with IRF4 (SK-MEL-28, 0.185 µM); 62% with IRF4 (SK-MEL-28, 4 µM). Besides, the target mRNA inhibition was 75% in the data set with IRF4 (SK-MEL-28, 5 µM) and 90% in the data set with IRF4 (SK-MEL-28, 15 µM). Turning to TTTTTAGTTCATACCC (sugars k3 d10 k3, PS), the target mRNA inhibition with IRF4 (SK-MEL-28, 4 µM) came out at 41%. Turning to CCCCTTAGGAACGAAG (sugars k3 d10 k3, PS), the target mRNA inhibition in the data set with IRF4 (MM.1R, 1 µM) is -6%. The same measure, in the same setting: for GCTAGCAGGAGCGAGA (sugars k3 d10 k3, PS) the value was -5%; for TGTACAGGACAGGTAA (sugars k3 d10 k3, PS), 8%; for “TGCTTGAGGTTTTCCT (sugars kkkdddddddddkeke, PS)”, 35%.

Take “AGCATTTTATCATCCG (sugars kkdddddddddkdkdk, PS)”: the target mRNA inhibition with IRF4 (MM.1R, 1 µM) turned out to be 11%. On to TGGAATCTTGGCAGGG (sugars k3 d10 k3, PS), for which, in the data set with IRF4 (SK-MEL-28, 4 µM), the target mRNA inhibition stood at 40%. With GGATTCCGCGCGCAGA (sugars k3 d10 k3, PS), the target mRNA inhibition with IRF4 (MM.1R, 1 µM) came to 21%. On to AGCCGCTACAGCTTCT (sugars k3 d10 k3, PS), for which the target mRNA inhibition with IRF4 (SK-MEL-28, 4 µM) is -8%. On to GTCAGCTCCATCCTGC (sugars k3 d10 k3, PS), for which the target mRNA inhibition in the data set with IRF4 (SK-MEL-28, 4 µM) is 52%. Same read-out and setting: the figure for CTATAATTGGCACGAG (sugars k3 d10 k3, PS) is 63%. On to TGTTCAGAAACCCTCA (sugars k3 d10 k3, PS), for which the target mRNA inhibition in the data set with IRF4 (MM.1R, 1 µM) was -15%. For CTTATTTGTGGCTCAA (sugars k3 d10 k3, PS), the target mRNA inhibition in the data set with IRF4 (SK-MEL-28, 4 µM) was 55%. The same measure, in the same setting: for TGATAAGGCACTACTT (sugars k3 d10 k3, PS) the value was 35%; for TAAAGATGCCAGAGGG (sugars k3 d10 k3, PS), 39%.

On to CAGCATCTAAGGCAAG (sugars k3 d10 k3, PS), for which, in the data set with IRF4 (SK-MEL-28, 4 µM), the target mRNA inhibition was 54%.

Turning to AATTCTATAGCTAAGT (sugars k3 d10 k3, PS), the target mRNA inhibition with HSD17B13 (1 µM) came out at 9%. Still for that read-out and setting: for TTGAGTAGTGTAAGCT (sugars k3 d10 k3, PS) the value was 52%. As for TAGCTATTGTCTTTGA (sugars k3 d10 k3, PS), the target mRNA inhibition in the data set with HSD17B13 (1 µM) is 63%. Consider TTGACTAAGGAGCTAG (sugars k3 d10 k3, PS), for which the target mRNA inhibition with HSD17B13 (1 µM) came to 20%. For “CAGTCTTAAACCTTCC (sugars k3 d9 k3 e1, PS)”, the target mRNA inhibition in the data set with HSD17B13 (0.02 µM) is 0%; with HSD17B13 (0.078 µM) it was 0%; with HSD17B13 (0.313 µM), 47%; in the data set with HSD17B13 (1 µM), 74% and 50%; with HSD17B13 (1.25 µM), 43%; with HSD17B13 (5 µM), 79%. Consider ATAATACATTAGCAAG (sugars k3 d10 k3, PS), for which the target mRNA inhibition with HSD17B13 (1 µM) was 7%. Still for that read-out and setting: the figure for CTACAGATTGGAATGC (sugars k3 d10 k3, PS) is 52%; for TAGAGAGCGATAGATC (sugars k3 d10 k3, PS) it is 22%; for GTGCACTCATTCTGTG (sugars k3 d10 k3, PS) it is 6%.
